Experimental data reported in patent US12098144B2, “Piperazine indazole glucocorticoid receptor antagonists” (Corcept Therapeutics Incorporated, priority 2021, dated 2024).
pKi: −log10 of the molar value.

Biological target: T1, glucocorticoid receptor (Homo sapiens, UniProt P04150)
T1 construct: endogenous in cells; ATCC cat
T1 sequence (P04150 1-777): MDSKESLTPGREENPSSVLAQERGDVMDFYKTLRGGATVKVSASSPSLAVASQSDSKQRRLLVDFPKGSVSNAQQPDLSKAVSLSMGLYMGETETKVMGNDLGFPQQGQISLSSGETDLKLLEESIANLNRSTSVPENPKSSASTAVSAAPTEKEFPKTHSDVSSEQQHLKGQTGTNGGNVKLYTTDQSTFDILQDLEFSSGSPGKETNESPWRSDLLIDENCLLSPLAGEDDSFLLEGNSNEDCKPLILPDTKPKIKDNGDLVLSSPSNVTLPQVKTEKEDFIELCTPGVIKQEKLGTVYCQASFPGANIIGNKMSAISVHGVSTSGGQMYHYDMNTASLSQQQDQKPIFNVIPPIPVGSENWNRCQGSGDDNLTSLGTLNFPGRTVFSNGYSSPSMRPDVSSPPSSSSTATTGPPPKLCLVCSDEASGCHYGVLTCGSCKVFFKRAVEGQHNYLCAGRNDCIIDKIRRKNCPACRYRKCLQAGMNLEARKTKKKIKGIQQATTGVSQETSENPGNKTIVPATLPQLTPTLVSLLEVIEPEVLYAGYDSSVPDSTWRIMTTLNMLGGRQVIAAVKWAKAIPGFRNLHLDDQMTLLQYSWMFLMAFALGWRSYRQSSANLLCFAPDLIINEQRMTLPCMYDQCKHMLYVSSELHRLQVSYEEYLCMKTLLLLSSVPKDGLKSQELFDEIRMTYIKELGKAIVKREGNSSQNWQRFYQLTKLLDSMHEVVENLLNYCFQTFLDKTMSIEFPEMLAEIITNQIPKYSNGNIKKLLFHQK
Test: Hep G2 TAT Ki: inhibition of dexamethasone-induced TAT in HepG2 cells (96 well)
Assay type: cell-based
Conditions: challenge of 100 nM dexamethasone, IC50 converted to Ki by Cheng and Prusoff equation
Protocol: Glucocorticoid mediated activation of TAT occurs by transactivation of glucocorticoid response elements in the TAT promoter by glucocorticoid receptor-agonist complex.
HepG2 cells were cultured using MEME media supplemented with 10% (v/v) foetal bovine serum; 2 mM L-glutamine and 1% (v/v) NEAA at 37° C., 5%/95% (v/v) CO2/air.
Compounds were serially half log diluted in 100% (v/v) dimethylsulphoxide from a 10 mM stock.
HepG2 cells were then lysed with 30 μl of cell lysis buffer containing a protease inhibitor cocktail for 15 minutes at 4° C. […] After 2 hours incubation at 37° C. the reaction was terminated by the addition of 15 μl of 10M aqueous potassium hydroxide solution, and the plates incubated for a further 30 minutes at 37° C.
[compound] and fitting the data to a 4 parameter logistic equation.

| pKi | SMILES |
| --- | --- |
| 6.92 | Cc1cc2c(cnn2-c2ccc(F)cc2)cc1C1CN(S(=O)(=O)c2cnn(C)n2)CCN1CC(C)C(F)(F)F (single isomer, unassigned) [Example 21, 1-(4-fluorophenyl)-6-methyl-5-(4-((2-methyl-2H-1,2,3-triazol-4-yl)sulfonyl)-1-(3,3,3-trifluoro-2-methylpropyl)piperazin-2-yl)-1H-indazole] |
| 7.70 | Cc1cc2c(cnn2-c2ccc(F)cc2)cc1C1CN(S(=O)(=O)c2cnn(C)n2)CCN1CC(C)C (single isomer, unassigned) [Example 11, 1-(4-fluorophenyl)-5-(1-isobutyl-4-((2-methyl-2H-1,2,3-triazol-4-yl)sulfonyl)piperazin-2-yl)-6-methyl-1H-indazole] |
| 7.01 | Cc1cc2c(cnn2-c2ccc(F)cc2)cc1C1CN(S(=O)(=O)c2cnn(C)n2)CCN1CC1CCOCC1 (centres unmarked) [Example 13, 1-(4-fluorophenyl)-6-methyl-5-(4-((2-methyl-2H-1,2,3-triazol-4-yl)sulfonyl)-1-((tetrahydro-2H-pyran-4-yl)methyl)piperazin-2-yl)-1H-indazole] |
| 7.66 | Cc1cc2c(cnn2-c2ccc(F)cc2)cc1C1CN(S(=O)(=O)c2cnn(C)n2)CCN1CC1CC(F)(F)C1 (single isomer, unassigned) [Example 76, 5-(1-((3,3-difluorocyclobutyl)methyl)-4-((2-methyl-2H-1,2,3-triazol-4-yl)sulfonyl)piperazin-2-yl)-1-(4-fluorophenyl)-6-methyl-1H-indazole] |
| 7.19 | Cc1cc2c(cnn2-c2ccc(F)cc2)cc1C1CN(S(=O)(=O)c2cnn(C)n2)CCN1CC1CCCO1 (single isomer, unassigned) [Example 120, 1-(4-fluorophenyl)-6-methyl-5-(4-((2-methyl-2H-1,2,3-triazol-4-yl)sulfonyl)-1-((tetrahydrofuran-2-yl)methyl)piperazin-2-yl)-1H-indazole] |
| 7.34 | Cc1cc2c(cnn2-c2ccc(F)cc2)cc1C1CN(S(=O)(=O)c2cnn(C)n2)CCN1Cc1ccccc1 (single isomer, unassigned) [Example 6, 5-(1-benzyl-4-((2-methyl-2H-1,2,3-triazol-4-yl)sulfonyl)piperazin-2-yl)-1-(4-fluorophenyl)-6-methyl-1H-indazole] |
| 6.77 | CC(C)CN1CCN(S(=O)(=O)c2cnn(C)n2)CC1c1cc2cnn(-c3ccc(F)cc3)c2cc1C(F)(F)F (centres unmarked) [Example 164, 1-(4-fluorophenyl)-5-(1-isobutyl-4-((2-methyl-2H-1,2,3-triazol-4-yl)sulfonyl)piperazin-2-yl)-6-(trifluoromethyl)-1H-indazole] |
| 7.37 | Cc1cc2c(cnn2-c2ccc(F)cc2)cc1C1CN(S(=O)(=O)c2cnn(C)n2)CCN1CC(C)(F)F (single isomer, unassigned) [Example 157, 5-(1-(2,2-difluoropropyl)-4-((2-methyl-2H-1,2,3-triazol-4-yl)sulfonyl)piperazin-2-yl)-1-(4-fluorophenyl)-6-methyl-1H-indazole] |
| 7.72 | Cc1ccc(S(=O)(=O)N2CCN(CC(C)C)C(c3cc4cnn(-c5ccc(F)cc5)c4cc3C)C2)cn1 (single isomer, unassigned) [Example 104, 1-(4-fluorophenyl)-5-(1-isobutyl-4-((6-methylpyridin-3-yl)sulfonyl)piperazin-2-yl)-6-methyl-1H-indazole] |
| 6.42 | Cc1cc2c(cnn2-c2ccc(F)cc2)cc1C1CN(S(=O)(=O)c2cnn(C)n2)CC(=O)N1Cc1ccccc1 (centres unmarked) [Example 153, 1-benzyl-6-(1-(4-fluorophenyl)-6-methyl-1H-indazol-5-yl)-4-((2-methyl-2H-1,2,3-triazol-4-yl)sulfonyl)piperazin-2-one] |
| 7.48 | Cc1cc2c(cnn2-c2ccc(F)cc2)cc1C1CN(S(=O)(=O)CC(F)(F)F)CCN1CC(C)C (single isomer, unassigned) [Example 106, 1-(4-fluorophenyl)-5-(1-isobutyl-4-((2,2,2-trifluoroethyl)sulfonyl)piperazin-2-yl)-6-methyl-1H-indazole] |
| 7.24 | Cc1cc2c(cnn2-c2ccc(F)cc2)cc1C1CN(S(=O)(=O)c2cnn(C)n2)CCN1CC(C)(C)C (single isomer, unassigned) [Example 161, 1-(4-fluorophenyl)-6-methyl-5-(4-((2-methyl-2H-1,2,3-triazol-4-yl)sulfonyl)-1-neopentylpiperazin-2-yl)-1H-indazole] |
| 6.43 | Cc1cc2c(cnn2-c2ccc(F)cc2)cc1C1CN(C(=O)C(C)O)CCN1CC(C)C (centres unmarked) [Example 65, 1-(3-(1-(4-fluorophenyl)-6-methyl-1H-indazol-5-yl)-4-isobutylpiperazin-1-yl)-2-hydroxypropan-1-one] |
| 6.64 | Cc1cc2c(cnn2-c2ccc(F)cc2)cc1C1CN(S(=O)(=O)c2cnn(C)n2)CCN1C1COC1 (single isomer, unassigned) [Example 28, 1-(4-fluorophenyl)-6-methyl-5-(4-((2-methyl-2H-1,2,3-triazol-4-yl)sulfonyl)-1-(oxetan-3-yl)piperazin-2-yl)-1H-indazole] |
| 7.15 | CC[C@H](C)N1CCN(S(=O)(=O)c2cnn(C)n2)C[C@@H]1c1cc2cnn(-c3ccc(F)cc3)c2cc1C (single isomer, unassigned) [Example 123, 5-(1-(sec-butyl)-4-((2-methyl-2H-1,2,3-triazol-4-yl)sulfonyl)piperazin-2-yl)-1-(4-fluorophenyl)-6-methyl-1H-indazole] |
| 7.30 | Cc1cc2c(cnn2-c2ccc(F)cc2)cc1C1CN(S(=O)(=O)c2cnn(C3CCOCC3)c2)CCN1CC(C)C (centres unmarked) [Example 36, 1-(4-fluorophenyl)-5-(1-isobutyl-4-((1-(tetrahydro-2H-pyran-4-yl)-1H-pyrazol-4-yl)sulfonyl)piperazin-2-yl)-6-methyl-1H-indazole] |
| 7.39 | Cc1cc2c(cnn2-c2ccc(F)cc2)cc1C1CN(S(=O)(=O)c2cnn(C)n2)CCN1CC(C)C (centres unmarked) [Example 4, 1-(4-fluorophenyl)-5-(1-isobutyl-4-((2-methyl-2H-1,2,3-triazol-4-yl)sulfonyl)piperazin-2-yl)-6-methyl-1H-indazole] |
| 7.46 | Cc1cc2c(cnn2-c2ccc(F)cc2)cc1C1CN(S(=O)(=O)C2CCC2)CCN1CC(C)C(F)(F)F (single isomer, unassigned) [Example 151, 5-(4-(cyclobutylsulfonyl)-1-(3,3,3-trifluoro-2-methylpropyl)piperazin-2-yl)-1-(4-fluorophenyl)-6-methyl-1H-indazole] |
| 6.48 | Cc1cc2c(cnn2-c2ccc(F)cc2)cc1C1CN(S(=O)(=O)c2cnn(C)n2)CCN1Cc1ccon1 (single isomer, unassigned) [Example 72, 3-((2-(1-(4-fluorophenyl)-6-methyl-1H-indazol-5-yl)-4-((2-methyl-2H-1,2,3-triazol-4-yl)sulfonyl)piperazin-1-yl)methyl)isoxazole] |
| 7.44 | CO[C@H]1C[C@@H](CN2CCN(S(=O)(=O)c3cnc(C)s3)C[C@@H]2c2cc3cnn(-c4ccc(F)cc4)c3cc2C)C1 (relative stereo) [Example 172, 5-((3-(1-(4-fluorophenyl)-6-methyl-1H-indazol-5-yl)-4-((3-methoxycyclobutyl)methyl)piperazin-1-yl)sulfonyl)-2-methylthiazole] |
| 6.85 | Cc1cc2c(cnn2-c2ccc(F)cc2)cc1C1CN(S(=O)(=O)c2cnn(C)n2)CCN1CC1CC(F)(F)C1 (single isomer, unassigned) [Example 75, 5-(1-((3,3-difluorocyclobutyl)methyl)-4-((2-methyl-2H-1,2,3-triazol-4-yl)sulfonyl)piperazin-2-yl)-1-(4-fluorophenyl)-6-methyl-1H-indazole] |
| 7.89 | Cc1cc2c(cnn2-c2ccc(F)cc2)cc1C1CN(S(=O)(=O)c2cnn(C)c2C)CCN1CCC(F)(F)F (single isomer, unassigned) [Example 129, 5-(4-((1,5-dimethyl-1H-pyrazol-4-yl)sulfonyl)-1-(3,3,3-trifluoropropyl)piperazin-2-yl)-1-(4-fluorophenyl)-6-methyl-1H-indazole] |
| 6.37 | Cc1cc2c(cnn2-c2ccc(F)cc2)cc1C1CN(S(=O)(=O)c2cnn(C)n2)CCN1CC(C)C (single isomer, unassigned) [Example 10, 1-(4-fluorophenyl)-5-(1-isobutyl-4-((2-methyl-2H-1,2,3-triazol-4-yl)sulfonyl)piperazin-2-yl)-6-methyl-1H-indazole] |
